Measured values as given in paper PMC7587962, “Evaluation of Cytotoxicity and α-Glucosidase Inhibitory Activity of Amide and Polyamino-Derivatives of Lupane Triterpenoids” (Molecules, 2020).
Where two headings read alike, the source gives them in different places.

Legend:
CCRF-CEM = assay: NCI-60 SRB screen: leukemia CCRF-CEM; type: cell-based; conditions: Homo sapiens, 48 h
K-562 = assay: NCI-60 SRB screen: leukemia K-562; type: cell-based, human
MOLT-4 = assay: NCI-60 SRB screen: leukemia MOLT-4; type: cell-based; conditions: Homo sapiens, MOLT-4, 48 h
RPMI-8226 = assay: NCI-60 SRB screen: leukemia RPMI-8226; type: cell-based; conditions: Homo sapiens, RPMI-8226, 48 h
EKVX = assay: NCI-60 SRB screen: non-small cell lung cancer EKVX; type: cell-based, human
HOP-62 = assay: NCI-60 SRB screen: non-small cell lung cancer HOP-62; type: cell-based, human
HOP-92 = assay: NCI-60 SRB screen: non-small cell lung cancer HOP-92; type: cell-based, human
NCI-H226 = assay: NCI-60 SRB screen: non-small cell lung cancer NCI-H226; type: cell-based, human
NCI-H23 = assay: NCI-60 SRB screen: non-small cell lung cancer NCI-H23; type: cell-based, human
NCI-H522 = assay: NCI-60 SRB screen: non-small cell lung cancer NCI-H522; type: cell-based, human
HCC-2998 = assay: NCI-60 SRB screen: colon cancer HCC-2998; type: cell-based, human
HCT-116 = assay: NCI-60 SRB screen: colon cancer HCT-116; type: cell-based; conditions: Homo sapiens, HCT-116, 48 h
SW-620 = assay: NCI-60 SRB screen: colon cancer SW-620; type: cell-based; conditions: Homo sapiens, SW-620, 48 h
SNB-75 = assay: NCI-60 SRB screen: CNS cancer SNB-75; type: cell-based, human
U251 = assay: NCI-60 SRB screen: CNS cancer U251; type: cell-based; conditions: Homo sapiens, U-251, 48 h
MDA-MB-435 = assay: NCI-60 SRB screen: melanoma MDA-MB-435; type: cell-based, human
SK-MEL-28 = assay: NCI-60 SRB screen: melanoma SK-MEL-28; type: cell-based, human
SK-MEL-5 = assay: NCI-60 SRB screen: melanoma SK-MEL-5; type: cell-based, human
OVCAR-3 = assay: NCI-60 SRB screen: ovarian cancer OVCAR-3; type: cell-based, human
OVCAR-4 = assay: NCI-60 SRB screen: ovarian cancer OVCAR-4; type: cell-based; conditions: Homo sapiens, OVCAR-4, 48 h
OVCAR-5 = assay: NCI-60 SRB screen: ovarian cancer OVCAR-5; type: cell-based, human
NCI/ADR-RES = assay: NCI-60 SRB screen: ovarian cancer NCI/ADR-RES; type: cell-based, human
786-0 = assay: NCI-60 SRB screen: renal cancer 786-0; type: cell-based, human
A498 = assay: NCI-60 SRB screen: renal cancer A498; type: cell-based, human
SN12C = assay: NCI-60 SRB screen: renal cancer SN12C; type: cell-based, human
PC-3 = assay: NCI-60 SRB screen: prostate cancer PC-3; type: cell-based, human
DU-145 = assay: NCI-60 SRB screen: prostate cancer DU-145; type: cell-based, human
MDA-MB-231/ATCC = assay: NCI-60 SRB screen: breast cancer MDA-MB-231/ATCC; type: cell-based; conditions: Homo sapiens, MDA-MB-231, 48 h
T-47D = assay: NCI-60 SRB screen: breast cancer T-47D; type: cell-based, human
[1] = system: 60 human tumor cell lines; assay: cells
Leukemia subpanel = assay: NCI-60 screen, subpanel Leukemia
Melanoma subpanel = assay: NCI-60 screen, subpanel Melanoma
Ovarian Cancer subpanel = assay: NCI-60 screen, subpanel Ovarian Cancer
Prostate cancer subpanel = assay: NCI-60 screen, subpanel Prostate cancer
[2] = read-out: Percentage Cell Growth

C=C(C)[C@@H]1CC[C@]2(C(N)=O)CC[C@]3(C)[C@H](CC[C@@H]4[C@@]5(C)CC[C@H](O)C(C)(C)[C@@H]5CC[C@]43C)[C@@H]12 [Compound 5]
GI50 (CCRF-CEM): 4.49 µM | activity at 10 µM (CCRF-CEM; [2]): 3.11% | GI50 (K-562; Homo sapiens, K562, 48 h): 3.04 µM | Percentage Cell Growth (K-562; K-562, single dose 10 µM): 4.57% | GI50 (MOLT-4): 3.43 µM | activity at 10 µM (MOLT-4; [2]): 1.86% | GI50 (RPMI-8226): 3.53 µM | activity at 10 µM (RPMI-8226; [2]): -19.8% | GI50 (EKVX; Homo sapiens, 48 h): 2.96 µM | Percentage Cell Growth (EKVX; single dose 10 µM): −10.31% | Percentage Cell Growth (HOP-62; HOP-62, single dose 10 µM): −72.18% | GI50 (HOP-62; Homo sapiens, HOP-62, 48 h): 3.21 µM | Percentage Cell Growth (HOP-92; HOP-92, single dose 10 µM): −62.83% | GI50 (HOP-92; Homo sapiens, HOP-92, 48 h): 2.69 µM | GI50 (NCI-H226; Homo sapiens, NCI-H226, 48 h): 4.11 µM | Percentage Cell Growth (NCI-H226; NCI-H226, single dose 10 µM): −50.47% | GI50 (NCI-H23; Homo sapiens, NCI-H23, 48 h): 2.26 µM | Percentage Cell Growth (NCI-H23; NCI-H23, single dose 10 µM): −27.08% | GI50 (NCI-H522; Homo sapiens, NCI-H522, 48 h): 3.13 µM | Percentage Cell Growth (NCI-H522; NCI-H522, single dose 10 µM): −53.76% | Percentage Cell Growth (HCC-2998; HCC-2998, single dose 10 µM): −39.02% | GI50 (HCC-2998; Homo sapiens, HCC 2998, 48 h): 3.96 µM | GI50 (HCT-116): 1.97 µM | activity at 10 µM (HCT-116; [2]): -24.8% | GI50 (SW-620): 3.88 µM | activity at 10 µM (SW-620; [2]): -4.49% | GI50 (SNB-75; Homo sapiens, SNB-75, 48 h): 2.74 µM | Percentage Cell Growth (SNB-75; SNB-75, single dose 10 µM): −39.09% | GI50 (U251): 2.54 µM | activity at 10 µM (U251; [2]): -69.3% | GI50 (MDA-MB-435; Homo sapiens, MDA-MB-435, 48 h): 8.65 µM | Percentage Cell Growth (MDA-MB-435; MDA-MB-435, single dose 10 µM): −4.44% | GI50 (SK-MEL-28; Homo sapiens, SK-MEL-28, 48 h): 1.09 µM | Percentage Cell Growth (SK-MEL-28; SK-MEL-28, single dose 10 µM): 0.38% | GI50 (SK-MEL-5; Homo sapiens, SK-MEL-5, 48 h): 5.22 µM | Percentage Cell Growth (SK-MEL-5; SK-MEL-5, single dose 10 µM): −39.59% | GI50 (OVCAR-3; Homo sapiens, OVCAR-3, 48 h): 2.07 µM | Percentage Cell Growth (OVCAR-3; OVCAR-3, single dose 10 µM): −46.59% | GI50 (OVCAR-4): 3.54 µM | GI50 (OVCAR-5; Homo sapiens, OVCAR-5, 48 h): 3.78 µM | Percentage Cell Growth (OVCAR-5; OVCAR-5, single dose 10 µM): −21.57% | GI50 (NCI/ADR-RES; Homo sapiens, 48 h): 3.17 µM | Percentage Cell Growth (NCI/ADR-RES; single dose 10 µM): −8.91% | Percentage Cell Growth (786-0; 786-0, single dose 10 µM): −72.16% | GI50 (786-0; Homo sapiens, 786-0, 48 h): 2.03 µM | Percentage Cell Growth (A498; A498, single dose 10 µM): −28.33% | GI50 (A498; Homo sapiens, A498, 48 h): 12.2 µM | GI50 (SN12C; Homo sapiens, 48 h): 3 µM | Percentage Cell Growth (SN12C; single dose 10 µM): −45.76% | GI50 (PC-3; Homo sapiens, PC-3, 48 h): 2.83 µM | Percentage Cell Growth (PC-3; PC-3, single dose 10 µM): −24.47% | Percentage Cell Growth (DU-145; DU-145, single dose 10 µM): −32.96% | GI50 (DU-145; Homo sapiens, DU-145, 48 h): 3.21 µM | GI50 (MDA-MB-231/ATCC): 1.97 µM | activity at 10 µM (MDA-MB-231/ATCC; [2]): -28.4% | GI50 (T-47D; Homo sapiens, T47D, 48 h): 4.55 µM | Percentage Cell Growth (T-47D; T-47D, single dose 10 µM): −24.75% | GI50 ([1]; read-out: GI50 ranges against all panels of NCI60): 1.09 to 13.2 µM | GI50 ([1]; read-out: MID a, average sensitivity of all cell line (GI50-MID)): 3.67 µM | MID b, average sensitivity of all cell line of particular subpanel (Leukemia subpanel): 3.20 µM | Selectivity, ratio MID a: MID b (Leukemia subpanel): 1.15 | MID b, average sensitivity of all cell line of particular subpanel (Melanoma subpanel): 5.58 µM | Selectivity, ratio MID a: MID b (Melanoma subpanel): 0.66 | MID b, average sensitivity of all cell line of particular subpanel (Ovarian Cancer subpanel): 3.88 µM | Selectivity, ratio MID a: MID b (Ovarian Cancer subpanel): 0.95 | MID b, average sensitivity of all cell line of particular subpanel (Prostate cancer subpanel): 3.02 µM | Selectivity, ratio MID a: MID b (Prostate cancer subpanel): 1.22
